Experimental data published in patent US9133168B2, “Pyrimidine derivatives, preparation thereof, and pharmaceutical use thereof as akt(pkb) phosphorylation inhibitors” (SANOFI, priority 2010, dated 2015).

System: AKT protein phosphorylated on serine 473 (P-AKT-S473) in PC3 human prostate carcinoma cells
Assay: pAKT expression in PC3 human prostate carcinoma cells, MSD Multi-spot Biomarker detection (Test A)
Type: cell-based
Conditions: 1 to 2 h incubation, P-AKT-S473, absolute IC50, mean of two independent experiments
Procedure: The inhibitory activity of the molecules on AKT phosphorylation is measured using the MSD Multi-spot Biomarker detection technique from Meso Scale Discovery also described below. […] The primary antibody specific for […]) is coated on to an electrode in each well of the 96-well plates of the MSD kit: after the addition of a protein lysate to each well, the signal is visualized by adding a secondary detection antibody labeled with an electrochemiluminescent compound. The procedure followed is the one described in the kit. […] On day 2, the cells are incubated in the presence or absence of the test products for 1 to 2 h at 37° C. in the presence of 5% CO2. The molecules, diluted in dimethyl sulfoxide (DMSO Sigma #D2650), are added from a 20-times concentrated stock solution, the final percentage of DMSO being 0.1%. The molecules are tested either at a single concentration of less than or equal to 10 μM, or at increasing concentrations in a range that can extend from less than 1 nM to 10 μM. After this incubation, the cells are lysed for the preparation of the proteins. […] At this stage, the plates containing the lysates can be frozen at -20° C. or at -80° C. The wells of the 96 well plates of the MSD kit are saturated for 1 h at ambient temperature with the blocking solution of the MSD kit. Four washes are carried out with 150 μl of Tris Wash Buffer of the MSD kit. The lysates previously prepared are transferred into the 96-well multi-spot plates of the MSD kit and incubated for 1 h at ambient temperature, with shaking. Four washes are carried out with 150 μl of Tris Wash Buffer of the MSD kit. 25 μl of the MSD sulfo-tag detection antibody solution are added to the wells and incubated for 1 h at ambient temperature, with shaking. Four washes are carried out with 150 μl of Tris Wash Buffer of the MSD kit. 150 μl of Read Buffer of the MSD kit are added to the wells and the plates are read immediately on the S12400 instrument from Meso Scale Discovery. The instrument measures a signal for each well. Wells without cells and containing the lysis buffer serve to determine the background noise that will be subtracted from all the measurements (min). The wells containing cells in the absence of product and in the presence of 0.1% DMSO are considered to be the 100% signal (max). The percentage inhibition is calculated for each concentration of product tested, according to the following formula: (1-((test-min)/(max-min)))×100. […] Two independent experiments make it possible to calculate the mean of the IC50 values.

IC50 (PC3 cells) [nM]	IC50 (Homo sapiens, PC-3, PC3 cells) [nM]	SMILES
14		CCC1Cc2ccccc2N1C(=O)Cc1nc(N2CCOCC2)cc(=O)[nH]1 (single isomer, unassigned; (-)) [Example 43c, (−)-2-[2-(2-ethyl-2,3-dihydroindol-1-yl)-2-oxoethyl]-6-morpholin-4-yl-3H-pyrimidin-4-one]
48		O=C(Cc1nc(N2CCOCC2)cc(=O)[nH]1)N1c2ccccc2CC1C1CC1 (single isomer, unassigned; (+)) [Example 34d, (+)-2-[2-(2-cyclopropyl-2,3-dihydroindol-1-yl)-2-oxoethyl]-6-morpholin-4-yl-3H-pyrimidin-4-one]
2		O=C(Cc1nc(N2CCOCC2)cc(=O)[nH]1)N1c2ccccc2CC1c1ccc(F)cc1 (single isomer, unassigned; (-)) [Example 28d, (−)-2-{2-[2-(4-fluorophenyl)-2,3-dihydro-1H-indol-1-yl]-2-oxoethyl}-6-(morpholin-4-yl)pyrimidin-4(3H)-one]
	15	C[C@H]1Cc2ccccc2N1C(=O)Cc1nc(N2CCOCC2)c(F)c(=O)[nH]1 [Example 5a, 5-fluoro-2-{2-[(2S)-2-methyl-2,3-dihydro-1H-indol-1-yl]-2-oxoethyl}-6-(morpholin-4-yl)pyrimidin-4(3H)-one]
	24	N#Cn1c(CC(=O)N2CCc3ccccc32)nc(N2CCOCC2)cc1=O [Example 42d, 2-[2-(2,3-dihydro-1H-indol-1-yl)-2-oxoethyl]-4-(morpholin-4-yl)-6-oxopyrimidine-1(6H)-carbonitrile]
	221	C[C@H]1Cc2ccccc2N1C(=O)Cc1nc(N2CCOCC2)c(F)c(=S)[nH]1 [Example 10e, 2-(5-fluoro-4-morpholin-4-yl-6-thioxo-1,6-dihydropyrimidin-2-yl)-1-((S)-2-methyl-2,3-dihydroindol-1-yl)ethanone]
	8	C[C@@H]1Cc2ccccc2N1C(=O)Cc1nc(N2CCOCC2)cc(=S)[nH]1 [Example 3e, 1-((R)-2-methyl-2,3-dihydroindol-1-yl)-2-(4-morpholin-4-yl-6-thioxo-1,6-dihydropyrimidin-2-yl)ethanone]
73		CC1Cc2c(F)cccc2N1C(=O)Cc1nc(N2CCOCC2)cc(=O)n1C (single isomer, unassigned; (+)) [Example 30c, (+)-2-{2-[4-fluoro-2-methyl-2,3-dihydro-1H-indol-1-yl]-2-oxoethyl}-3-methyl-6-(morpholin-4-yl)pyrimidin-4(3H)-one]
	42	O=C(Cc1nc(N2CCOCC2)cc(=O)[nH]1)N1CCc2c(-c3ccccc3Cl)cccc21 [Example 14d, 2-{2-[4-(2-chlorophenyl)-2,3-dihydro-1H-indol-1-yl]-2-oxoethyl}-6-(morpholin-4-yl)pyrimidin-4(3H)-one]
	53	CC1Cc2c(F)cccc2N1C(=O)Cc1nc(N2CCOCC2)cc(=O)n1C (single isomer, unassigned; (-)) [Example 29c, (−)-2-{2-[4-fluoro-2-methyl-2,3-dihydro-1H-indol-1-yl]-2-oxoethyl}-3-methyl-6-(morpholin-4-yl)pyrimidin-4(3H)-one]
	53	O=C(Cc1nc(N2CCOCC2)cc(=O)[nH]1)N1CCc2c(-c3cccnc3)cccc21 [Example 13d, 6-(morpholin-4-yl)-2-{2-oxo-2-[4-(pyridin-3-yl)-2,3-dihydro-1H-indol-1-yl]ethyl}pyrimidin-4(3H)-one]
	66	O=C(Cc1nc(N2CCOCC2)cc(=O)[nH]1)N1CCc2c(-c3ccccn3)cccc21 [Example 12d, 6-(morpholin-4-yl)-2-{2-oxo-2-[4-(pyridin-2-yl)-2,3-dihydro-1H-indol-1-yl]ethyl}pyrimidin-4(3H)-one]
1		CC1Cc2c(ccc(F)c2Cl)N1C(=O)Cc1nc(N2CCOCC2)cc(=O)[nH]1 (single isomer, unassigned; (-)) [Example 38c, (−)-2-{2-[4-chloro-5-fluoro-2-methyl-2,3-dihydro-1H-indol-1-yl]-2-oxoethyl}-6-(morpholin-4-yl)pyrimidin-4(3H)-one]
271		O=C(Cc1nc(N2CCOC(CF)C2)cc(=O)[nH]1)Nc1ccc(F)cc1 (stereo not shown) [Example 3b, 2-[4-(2-fluoromethylmorpholin-4-yl)-6-oxo-1,6-dihydropyrimidin-2-yl]-N-(4-fluorophenyl)acetamide]
156		CC1CN(c2cc(=O)[nH]c(CC(=O)N3CCc4c(F)cccc43)n2)CCO1 (single isomer, unassigned; (-)) [Example 9b, (−)-2-[2-(4-fluoro-2,3-dihydroindol-1-yl)-2-oxoethyl]-6-(2-methylmorpholin-4-yl)-3H-pyrimidin-4-one]
	101	N#Cc1cccc2c1CCN2C(=O)Cc1nc(N2CCOCC2)cc(=O)[nH]1 [Example 46c, 1-{[4-(morpholin-4-yl)-6-oxo-1,6-dihydropyrimidin-2-yl]acetyl}-2,3-dihydro-1H-indole-4-carbonitrile]
116		CC1Cc2c(F)cccc2N1C(=O)Cc1nc(N2CCOCC2)c(F)c(=O)[nH]1 (stereo not drawn) [Example 10a, 5-fluoro-2-[2-((+)-2-methyl-4-fluoro-2,3-dihydroindol-1-yl)-2-oxoethyl]-6-morpholin-4-yl-3H-pyrimidin-4-one]
	4	CC(C)C1Cc2ccccc2N1C(=O)Cc1nc(N2CCOCC2)cc(=O)[nH]1 (single isomer, unassigned; (-)) [Example 39c, (−)-2-[2-(2-isopropyl-2,3-dihydroindol-1-yl)-2-oxoethyl]-6-morpholin-4-yl-3H-pyrimidin-4-one]
18		CC1CN(c2cc(=O)[nH]c(CC(=O)N3CCc4c(F)cccc43)n2)CCO1 (stereo not shown) [Example 8b, 2-[2-(4-fluoro-2,3-dihydroindol-1-yl)-2-oxoethyl]-6-(2-methylmorpholin-4-yl)-3H-pyrimidin-4-one]
	2860	O=C(Cc1nc(-c2ccnc(F)c2)cc(=O)[nH]1)N1CCc2c(F)cccc21 [Example 24b, 2-[2-(4-Fluoro-2,3-dihydroindol-1-yl)-2-oxoethyl]-6-(2-fluoropyridin-4-yl)-3H-pyrimidin-4-one]
	30	O=C(Cc1nc(N2CCOCC2)cc(=O)[nH]1)N1c2ccccc2C2CCCC21 (stereo not shown) [Example 16d, 6-(morpholin-4-yl)-2-[2-oxo-2-(2,3,3a,8b-tetrahydrocyclopenta[b]indol-4(1H)-yl)ethyl]pyrimidin-4(3H)-one]
	503	C[C@@H]1Cc2ccccc2N1C(=O)Cc1nc(N2CCOCC2)c(F)c(=O)[nH]1 [Example 4a, 5-fluoro-2-{2-[(2R)-2-methyl-2,3-dihydro-1H-indol-1-yl]-2-oxoethyl}-6-(morpholin-4-yl)pyrimidin-4(3H)-one]
16		CC1Cc2cc(F)c(F)cc2N1C(=O)Cc1nc(N2CCOCC2)c(F)c(=O)[nH]1 (stereo not drawn) [Example 12a, 2-[2-((+)-5,6-difluoro-2-methyl-2,3-dihydroindol-1-yl)-2-oxoethyl]-5-fluoro-6-morpholin-4-yl-3H-pyrimidin-4-one]
310		CC1Cc2c(ccc(F)c2F)N1C(=O)Cc1nc(N2CCOCC2)c(F)c(=O)n1C (stereo not drawn) [Example 24a, 5-fluoro-2-[2-((−)-4,5-difluoro-2-methyl-2,3-dihydroindol-1-yl)-2-oxoethyl]-3-methyl-6-morpholin-4-yl-3H-pyrimidin-4-one]
5		O=C(Cc1nc(N2CCOCC2)cc(=O)[nH]1)N1c2ccccc2CC1c1ccccc1 (single isomer, unassigned; (-)) [Example 25d, (−)-6-(morpholin-4-yl)-2-{2-oxo-2-[2-phenyl-2,3-dihydro-1H-indol-1-yl]ethyl}pyrimidin-4(3H)-one]
162		CC1Cc2cc(F)c(F)cc2N1C(=O)Cc1nc(N2CCOCC2)c(F)c(=O)[nH]1 (stereo not drawn) [Example 13a, 2-[2-((−)-5,6-difluoro-2-methyl-2,3-dihydroindol-1-yl)-2-oxoethyl]-5-fluoro-6-morpholin-4-yl-3H-pyrimidin-4-one]
65		CC1Cc2cc(F)ccc2N1C(=O)Cc1nc(N2CCOCC2)c(F)c(=O)n1C (stereo not drawn) [Example 15a, 5-fluoro-2-[2-((+)-5-fluoro-2-methyl-2,3-dihydroindol-1-yl)-2-oxoethyl]-3-methyl-6-morpholin-4-yl-3H-pyrimidin-4-one]

SMILES	IC50 (PC3 cells) [nM]	IC50 (Homo sapiens, PC-3, PC3 cells) [nM]
CN1CCC2(CC1)CN(C(=O)Cc1nc(N3CCOCC3)cc(=O)[nH]1)c1ccccc12 [Example 11d, 2-[2-(1′-methylspiro[indole-3,4′-piperidin]-1(2H)-yl)-2-oxoethyl]-6-(morpholin-4-yl)pyrimidin-4(3H)-one]		26
